pIC50: −log10 of the molar value.
Experiments:
[1] = target: T1, CYP2C9 (Homo sapiens, UniProt P11712); test: Cytochrome P450 inhibition CYP2C9; format: in vitro ADME; settings: human liver microsomes
T1 construct: from tissue; host or cells: human liver microsomes
Experimental: (§1) Test compound (0.1, 0.25, 1, 2.5, 10, 25 μM in DMSO; final DMSO concentration 0.3%) was incubated with human liver microsomes (0.25 mg/mL) and NADPH (1 mM) in the presence of a cytochrome P450 isoform-specific probe substrate. The metabolites were monitored by LC-MS/MS and a decrease in the formation of the metabolite compared to the vehicle control used to calculate an IC50 value (test compound concentration which produces 50% inhibition). A cytochrome P450 isoform-specific selective inhibitor was screened alongside the test compounds as a positive control.

[2] = target: T2, CYP2C8 (Homo sapiens, UniProt P10632); test: Cytochrome P450 inhibition CYP2C8; format: in vitro ADME; settings: human liver microsomes
T2 construct: from tissue; host or cells: human liver microsomes
T2 sequence (P10632 1-490): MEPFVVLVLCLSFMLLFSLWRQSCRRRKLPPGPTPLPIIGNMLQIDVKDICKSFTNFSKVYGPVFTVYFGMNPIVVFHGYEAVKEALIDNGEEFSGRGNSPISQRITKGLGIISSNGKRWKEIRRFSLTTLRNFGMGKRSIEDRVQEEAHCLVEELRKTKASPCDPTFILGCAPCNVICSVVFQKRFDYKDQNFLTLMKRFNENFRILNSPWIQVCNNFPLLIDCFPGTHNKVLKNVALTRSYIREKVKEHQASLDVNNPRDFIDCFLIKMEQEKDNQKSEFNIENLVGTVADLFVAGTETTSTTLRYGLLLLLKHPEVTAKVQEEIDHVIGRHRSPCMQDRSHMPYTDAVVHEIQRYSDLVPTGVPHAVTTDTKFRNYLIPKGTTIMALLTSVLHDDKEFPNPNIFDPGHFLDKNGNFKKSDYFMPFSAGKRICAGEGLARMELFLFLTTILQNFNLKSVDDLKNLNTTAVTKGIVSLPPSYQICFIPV
Experimental: as §1

[3] = In vivo pharmacokinetics in the dog; set-up: species or system Beagle dogs; settings: Beagle, plasma, 3 mg/kg PO
Experimental: The pharmacokinetics of compounds of the invention were studied in vivo in the dog at doses of 3 mg/kg (PO).
Beagle dogs (n=3) were treated with experimental compounds via oral administration (3 mg/kg). Oral administration was performed by gavage at a dose of 3 mg/kg at a concentration of 0.6 mg/mL in […], 30% PEG 400 & 65% (2-hydroxypropyl)-β-cyclodextrin solution (20% w/v aq.). Serial blood samples were collected at 0.08, 0.25, 0.5, 1, 2, 4, 6, 8, 12 and 24 hours post dosing of compound. […] Serial plasma samples were taken at the defined time points and stored immediately at −80° C.
Following protein precipitation with acetonitrile, samples were analysed with tandem. liquid chromatography/mass spectrometry using electrospray ionisation. A full matrix curve with internal standards was employed and PK parameters were calculated.

T1 sequence (P11712 whole entry): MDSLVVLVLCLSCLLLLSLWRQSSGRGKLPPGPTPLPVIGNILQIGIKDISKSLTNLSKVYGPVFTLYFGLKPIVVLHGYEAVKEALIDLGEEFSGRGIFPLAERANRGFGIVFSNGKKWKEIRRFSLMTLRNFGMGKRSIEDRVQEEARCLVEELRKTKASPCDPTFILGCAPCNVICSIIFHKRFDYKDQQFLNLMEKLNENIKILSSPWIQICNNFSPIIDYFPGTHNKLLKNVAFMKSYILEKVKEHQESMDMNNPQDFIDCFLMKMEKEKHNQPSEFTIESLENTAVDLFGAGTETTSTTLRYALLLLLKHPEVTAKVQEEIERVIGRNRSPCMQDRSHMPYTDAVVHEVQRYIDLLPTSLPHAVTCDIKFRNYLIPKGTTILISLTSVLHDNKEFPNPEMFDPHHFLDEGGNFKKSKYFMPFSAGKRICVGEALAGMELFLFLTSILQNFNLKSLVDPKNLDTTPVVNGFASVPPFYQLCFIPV

CS(=O)(=O)N1CCC(n2c(CN3C(=O)C4(CC4)c4ccc(F)cc43)nc3cc(Cl)ccc32)CC1 [Compound 33, 1′-{[5-Chloro-1-(1-methanesulfonylpiperidin-4-yl)-1H-1,3-benzodiazol-2-yl]methyl}-6′-fluoro-1′,2′-dihydrospiro[cyclopropane-1,3′-indole]-2′-one] showed a pIC50 [1] of under 4.60, a pIC50 [2] of under 4.60 and an AUC [3] of 3870 ng·h/mL. It also gave an AUC(0-inf) [3] of 4280 ng·h/mL, an AUC(0-t) [3] of 3870 ng·h/mL and a Cmax [3] of 535 ng/mL. For the same compound, the Tmax [3] was 0.67 h and the half-life [3] was 7.24 h.

— patent US11078189B2, “Pharmaceutical compounds” (REVIRAL LIMITED, priority 2017, dated 2021)
